One test concerns J4/JFH-1 (GT1b/2a HCV). The test can be described thus: Inhibition of infectious virus release from Huh7 cells transfected with J4/JFH-1 RNA (focus forming assay). Type of test: cell-based, hepatitis C virus. As to the method:
(§1) Figure 4 Selection of novel, structurally diverse p7 inhibitors. In silico screening using p7 channel models as a template derived a range of Lipinski-compliant potential inhibitors of the p7 channel complex and the top 30 were selected for testing as proof-of-principle. (A) Liposome dye release assay showing endpoint values compounds with activity against wild-type p7 at 250 nM that were subsequently selected for cell culture studies. Results are the average of two separate experiments with each condition in duplicate and are expressed as a percentage of the untreated protein value following baseline subtraction (liposomes alone). […] (B) Inhibition of infectious virus release from Huh7 cells transfected with J4/JFH-1 RNA using novel compounds (400 nM). Selected compounds show minimal effect on intracellular infectivity, replicon replication and have no toxic effects (see Supporting Fig. 5 and Table 2). […] (C) Structures of selected initial hit compounds. (D) Predicted docking poses of rimantadine novel compounds at the allosteric binding site (calculated in Glide, Schrodinger). Key interacting residues are highlighted.
Figure 6 Effects of novel inhibitors against multiple HCV genotypes. […] Results are representative of two independent experiments and are the average of triplicate wells. Error bars represent standard deviations. […]

In a further test the test system is J4/JFH-1(L20F). Conditions: subcytotoxic concentrations; cited from earlier work.
The target of a further test is T1, genotype 1b p7 (Hepatitis C virus genotype 1b, UniProt O92972).
T1 construct: selected for testing against genotype 1b p7 in vitro; made in house; host or cells: Escherichia coli BL21(DE3)
T1 sequence (O92972 747-809): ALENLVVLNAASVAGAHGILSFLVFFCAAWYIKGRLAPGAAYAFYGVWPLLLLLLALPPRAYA
Briefly: Liposome carboxyfluorescein dye release assay for p7 channel activity. As to conditions: genotype 1b p7 in vitro, prototype control, read-out: median inhibitory concentration [IC50]. The format is biochemical. As to the method:
Liposome carboxyfluorescein release assays were conducted as described previously.[13],[15],[28]
as §1

The next test concerns Leu20Phe J4/JFH-1. The test can be described thus: HCV spread following infection at low M.O.I., NS5A foci counted. Conditions: low multiplicity infection. The format is cell-based, hepatitis C virus. From the text: Figure 5 Specificity of novel p7 inhibitors. Screening lead hits LDS19 and 21 were examined for specificity against wild-type and rimantadine resistant HCV. (A) Titration of LDS 19 and 21 against Huh7 cells transfected with both wild-type (diamonds) and Leu20Phe (squares) J4/JFH-1 RNA, showing effects on released infectivity. Graph plots the average released titers from duplicate wells from at least two separate experiments, normalized to the 100% untreated value. Error bars represent normalized percent error of the mean between experiments (*P < 0.05). (B) Effects of p7 inhibitors on HCV spread following infection at low M.O.I (0.0001 FFU/cell). Huh7 cells were infected in triplicate overnight with wild-type (black) and Leu20Phe (white) J4/JFH-1 and then media replaced after extensive washing with that containing inhibitors. Fluorescent NS5A foci were counted at 72 hours postinfection. […] Error bars represent normalized percent error of the mean (*P < 0.05, **P < 0.01). […] Results are the average of two separate experiments with duplicate wells and error bars are normalized percent error of the mean between experiments.

Where two headings read alike, the source gives them in different places.

As to `CCCCCCCCCN1C[C@H](O)[C@@H](O)[C@H](O)[C@H]1CO` [NN-DNJ], the IC50 in the test with J4/JFH-1 (GT1b/2a HCV) (J4/JFH-1 RNA transfected Huh7, prototype shown for comparison, read-out: ∼IC50, infectious virus release) is ~20 µM.
For the molecule `CC(N)C12CC3CC(CC(C3)C1)C2` (centres unmarked) [rimantadine], the “effect on Leu20Phe infectious virion production” value in the test with J4/JFH-1(L20F) was “ineffective”. Moreover, the IC50 is ~40 µM at genotype 1b p7 and ~40 µM with J4/JFH-1 (GT1b/2a HCV) (Hepatitis C virus, GT1B, Huh-7, read-out: ∼IC50, infectious virus release). Also, in the test on Leu20Phe J4/JFH-1, the “sensitivity of Leu20Phe HCV spread to compound” value is reported as “insensitive”.
